# US8273543B2, “Regulation of BACE degradation” (The General Hospital Corporation, priority 2006, dated 2012)
# Entries after “also recorded” stand apart in the source; their conditions may differ. Peptide text beside a SMILES is read from it. * marks the point of attachment. Cbz = O=C(OCc1ccccc1)*; CH2F = FC*
# B1: recombinant caspase 3: Recombinant caspase 3 purchased from Pharmingen (protein)
# chain: SGISLDNSYKMDYPEMGLCIIINNKNFHKSTGMTSRSGTDVDAANLRETFRNLKYEVRNKNDLTREEIVELMRDVSKEDHSKRSSFVCVLLSHGEEGIIFGTNGPVDLKKITNFFRGDRCRSLTGKPKLFIIQACRGTELDCGIETDSGVDDDMACHKIPVEADFLYAYSTAPGYYSWRNSKDGSWFIQSLCAMLKQYADKLEFMHILTRVNRKVATEFESFSFDATFHAKKQIPCIVSMLTKELYFYH
# B2: GGA3DN: HA-tagged GGA3 N-terminal fragment 1-313 mimicking the N-terminal caspase-derived fragment generated by cleavage at D313 (protein, UniProt Q9NZ52 1-313, looked up, fragment)
# chain: MAEAEGESLESWLNKATNPSNRQEDWEYIIGFCDQINKELEGPQIAVRLLAHKIQSPQEWEALQALTVLEACMKNCGRRFHNEVGKFRFLNELIKVVSPKYLGDRVSEKVKTKVIELLYSWTMALPEEAKIKDAYHMLKRQGIVQSDPPIPVDRTLIPSPPPRPKNPVFDDEEKSKLLAKLLKSKNPDDLQEANKLIKSMVKEDEARIQKVTKRLHTLEEVNNNVRLLSEMLLHYSQEDSSDGDRELMKELFDQCENKRRTLFKLASETEDNDNSLGDILQASDNLSRVINSYKTIIEGQVINGEVATLTLPD
# modifications: HA tag
# notes: HA-tagged GGA3 N-terminal fragment 1-313 mimicking the N-terminal caspase-derived fragment generated by cleavage at D313
# Assays:
# [1] = system: BACE; conditions: variety of cell types, including primary neurons; cited from earlier work
# [2] = system: caspase 3; experiment: Caspase 3 activation, Western blot with anti-caspase 3 active fragment antibody; format: cell-based, human; conditions: H4-APP751 cells, STS treatment
# From the text: (§1) Gervais and colleagues (Gervais et al., 1999) proposed that caspase-mediated cleavage of APP at APPD720 was responsible for increased Aβ generation associated with apoptosis. […] The Aβ ELISA measured Aβ1-total using biotinylated 3D6, which specifically recognizes the aspartate in position 1 of Aβ, as a reporter antibody. […] Here, we investigated whether apoptosis-mediated increases in Aβ levels may be due to enhanced cleavage of APP by BACE, the protease responsible for β-secretase cleavage of APP (Vassar et al., 1999). For this purpose, we tested whether apoptosis/caspase activation leads to increased levels of APP-C99, the C-terminal fragment generated by β-secretase cleavage of APP. […]
# (§2) H4 human neuroglioma cells expressing APP751 (H4-APP751) and APP-SWE (H4-APPSWE) were grown in DMEM containing 10% FBS, 200 μg/mL G418, 250 μg/mL zeocin, 2 mM L-glutamine, 100 U/ml penicillin, 100 μg/mL streptomycin. […] Densitometry analysis was performed on a Macintosh computer using the public domain NIH Image program (developed at the U.S. National Institutes of Health and available on the Internet at rsb.info.nih.gov/nih-image/) or using a Versadoc Imager and QuantityOne software (BioRad).
# [3] = system: Aβ1-total; conditions: CHO cells, 6 hr treatment; cited from earlier work
# [4] = system: GGA3; experiment: GGA3 cleavage during apoptosis in H4 cells, Western blot with anti-GGA3 antibody; format: cell-based, human; conditions: for cleavage of full length GGA3: H4 cells, STS time course
# Description: H4 cells were treated with staurosporine (STS) during time course experiments.
# (§3) H4 human neuroglioma cells expressing APP751 (H4-APP751) and APP-SWE (H4-APPSWE) were grown in DMEM containing 10% FBS, 200 μg/mL G418, 250 μg/mL zeocin, 2 mM L-glutamine, 100 U/ml penicillin, 100 μg/mL streptomycin. For the induction of apoptosis, we used staurosporine or etoposide (Calbiochem). For time-course experiments, cells were seeded at a density of 2×10^6 cells per 100 mm dish and treated with STS (1 μM) or etoposide (100 μg/mL). In order to inhibit caspase activation a sister plate of cells was pretreated with zVAD (100 μM, Calbiochem) for 1 hr before STS treatment. At different time points (0, 3, 6, 9, 12, and 24 hr), the cells were scraped, centrifuged, and then lysed in buffer containing 1% NP40. Western blot analysis was performed as previously described (Tesco et al., 2003). Densitometry analysis was performed on a Macintosh computer using the public domain NIH Image program (developed at the U.S. National Institutes of Health and available on the Internet at rsb.info.nih.gov/nih-image/) or using a Versadoc Imager and QuantityOne software (BioRad).
# [5] = system: APP-C99; experiment: APP-C99 levels during apoptosis, Western blot with WO2 antibody; format: cell-based, human; conditions: H4-APP751 cells, apoptosis induced by STS
# From the text: as §1, §2
# [6] = system: BACE; experiment: Induction of apoptosis, Western blot of BACE protein levels; format: cell-based, human; conditions: H4-APP751 cells
# Description: as §3
# [7] = system: TACE and APP; experiment: Cycloheximide degradation time-course, TACE and APP; format: cell-based, human; conditions: H4-APP751 cells, STS+CHX vs CHX (40 μg/ml) only
# Description: (§4) H4-APP751 cells were treated with CHX (40 μg/ml) only or STS (1 μM)+CHX during a 30 hr time-course. Lysates from each time point were immunoblotted with the specific antibodies, anti-BACE, anti-TACE, and the anti-APP antibody […].
# [8] = system: BACE mRNA; experiment: Northern blot analysis of BACE mRNA; format: cell-based, human; conditions: H4-APP751 cells, 6 hr of STS treatment
# Description: Total RNA was extracted using TRIZOL (Invitrogen). Northern blot analysis was performed as previously described (Koh et al., 2001). Human cDNA of BACE was labeled with […] (PerkinElmer, Norwalk Conn.) using random hexanucleotide primers (Prime-a-gene labeling system; Promega Madison Wis.).
# [9] = system: BACE; experiment: Cycloheximide degradation time-course, BACE; format: cell-based, human; conditions: H4-APP751 cells, STS+CHX vs CHX (40 μg/ml) only
# Description: as §4
# [10] = system: GGA3; experiment: Full length GGA3 in primary cortical neurons treated with STS, Western blot; format: cell-based; conditions: primary cortical neurons (PCN), STS for 12 hr
# Description: FIG. 5b: rat brain samples from the experiment described in FIG. 7. […] FIG. 5c: H4 and primary cortical neurons (PCN) were treated with STS for 12 hr.
# [11] = system: ischemic and excitotoxic neuronal damage; conditions: intracerebroventricular injection before ischemia and immediately after reperfusion; cited from earlier work
# [12] = system: BACE; conditions: caspase inhibition; cited from earlier work
# [13] = system: GGA3; experiment: In vitro translation and recombinant caspase 3 cleavage assay; format: biochemical, human; conditions: recombinant caspase 3
# Description: The HA-GGA3 pcDNA4 plasmid was a generous gift from Dr. Waguri. GGA3 was in vitro translated (IVT) in the presence of [^35S]-labeled methionine using TNT Quick Coupled Transcription/Translation Systems as indicated by the manufacturer (Promega, Madison Wis.). 5 μL of IVT reaction were incubated with or without 200 ng of recombinant caspase 3 (Pharmingen, San Diego, Calif.) in caspase reaction buffer (sucrose 20%, NaCl 100 mM, HEPES (pH 7.4) 20 mM, CHAPS 0.1%, DTT 10 mM, EDTA 1 mM) at 37° for 2 hr. The reactions were separated by SDS-page (4-12% Bis-tricine gel with MES running buffer, Invitrogen Carlsbad, Calif.). The gel was fixed, dried and exposed to a phosphorimager screen. The images were acquired with a FX phosphorimager (Bio-Rad, Hercules Calif.). GGA3 in vitro translation was also performed in the presence of cold methionine. Then, 5 μL of IVT reaction were incubated with or without 200 ng of recombinant caspase 3 overnight at 37°. The reactions were separated by SDS-page. In order to better separate the bands generated by caspase 3 cleavage we used 12% Bis-tricine gel and MOPS running buffer (Invitrogen). Then, the proteins were transferred to PVDF membrane and WB analysis with anti-GGA3 antibody was performed.
# [14] = system: BACE; experiment: Co-transfection of GGA3DN with myc-tagged BACE in H4-APP751 cells, BACE levels; format: cell-based, human
# From the text: To address this possibility we engineered a HA-tagged GGA3 N-terminal fragment 1-313 mimicking the N-terminal caspase-derived fragment generated by cleavage at D313 (GGA3DN). […] During apoptosis, however, caspase-mediated cleavage of GGA3 results not only in the production of GGA3DN but also the degradation of GGA3.
# [15] = system: Aβ40; experiment: Secreted Aβ40 in conditioned media, sandwich ELISA; format: cell-based, human; conditions: H4-APP751 cells expressing GGA3DN
# Description: Secreted Aβ40 was measured in the conditioned media using an Aβ40-specific sandwich ELISA (BioSource International, Camarillo, Calif.). Aβ concentration was normalized against the concentration of protein in the cell lysates.
# H4 cells stably expressing wild-type APP-751 or APP containing the Swedish FAD mutation (APPSwe) were transfected with 200 nM siGGA3 (ID #36847, Ambion, Austin Tex.) or a 19 bp scrambled sequence was used as negative control for siRNA (Silencer Negative control #1 siRNA, Ambion) using oligofectamine following manufacturer's instructions (Invitrogen). 72 hr later, GGA3 levels were determined by WB analysis with anti-GGA3 antibody (Transduction Laboratories). At the same time point, a sister plate of the same cells was co-transfected with myc-tagged BACE plasmid and siGGA3 or siNeg. After 48 hr the media was replaced. Cells and media were collected after 72 hr following the co-transfection.
molecule,measurement,setting,value
Cl.N [NH4Cl],accumulation of endogenous and ectopically expressed BACE,[1],lead to accumulation
"CN[C@@H]1C[C@H]2O[C@@](C)([C@@H]1OC)n1c3ccccc3c3c4c(c5c6ccccc6n2c5c31)C(=O)NC4 [STS, staurosporine]",earliest time of caspase 3 activation,[2],6 h
same,Aβ1-total production compared to untreated cells,[3],significantly increased
same,cleavage of full length GGA3,[4],cleaved into two major fragments
same,cleavage of full length GGA3,[4]; listed as staurosporine,cleaved in two major fragments
same,levels of APP-C99,[5],increased levels of C99
same,increase in BACE protein levels,[6]; 12 hr of STS treatment,~6 fold
same,increase in BACE protein levels,[6]; 24 hr of STS treatment,~9 fold
same,degradation of TACE and APP,[7],unchanged
same,BACE mRNA levels,[8],virtually undetectable
same,degradation of BACE,[9],degradation of BACE was decreased
same,full length GGA3,[10],decrease in full length GGA3
CCN(CC)CCCC(C)Nc1ccnc2cc(Cl)ccc12 (centres unmarked) [chloroquine],accumulation of endogenous and ectopically expressed BACE,[1],lead to accumulation
COc1cc([C@@H]2c3cc4c(cc3[C@@H](O[C@@H]3O[C@@H]5CO[C@@H](C)O[C@H]5[C@H](O)[C@H]3O)[C@H]3COC(=O)[C@H]23)OCO4)cc(OC)c1O [etoposide],BACE protein levels,[6]; apoptosis induced by etoposide,increased BACE protein levels
COC(=O)C[C@H](NC(=O)[C@H](C)NC(=O)[C@@H](NC(=O)OCc1ccccc1)C(C)C)C(=O)CF [z-VAD.FMK] (Cbz-Val-Ala-Asp(OMe)-CH2F),ischemic and excitotoxic neuronal damage,[11],significantly reduces
COC(=O)CC[C@H](NC(=O)[C@H](CC(=O)OC)NC(=O)OCc1ccccc1)C(=O)N[C@H](C(=O)N[C@@H](CC(=O)OC)C(=O)CF)C(C)C [zDEVD.FMK],ischemic and excitotoxic neuronal damage,[11],significantly reduces
CC(NC(=O)C(NC(=O)OCc1ccccc1)C(C)C)C(=O)NC(CC(=O)O)C(=O)CF (stereo not drawn) [zVAD] (Cbz-Val-Ala-Asp-CH2F; configuration not given here),increase in Aβ production during apoptosis,[12],prevent
same,stabilization of BACE during apoptosis,[12],prevent the stabilization of BACE
same,cleavage of GGA3 during apoptosis,"[4]; apoptotic H4 cells, caspase inhibition",inhibited; also recorded: prevented
same,BACE accumulation during STS or etoposide treatment,[6]; caspase inhibition,prevented BACE accumulation
B1,"cleavage of in vitro translated GGA3 (cold methionine), Western blot",[13],three major fragments
B2,BACE levels compared to vector alone or GGA3,[14],BACE levels were increased
same,levels of secreted Aβ40,[15],the increase was not statistically significant
